In PubChem BioAssay (NCI) one finds TGI and GI50 data, which are given here for twelve compounds.

The structures appear in SMILES notation. “And” between values parts separate entries of the source, which are not always exact repeats. Identical values can stand only once.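 Protocol summary: plate cells (96-well), add compound at 5 concentrations, incubate 48 h, interpolate endpoints linearly. The concentration for 50% growth inhibition is given as GI50. Definition used: TGI = concentration required for complete inhibition of growth.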

Common to all, as to assay: inhibition of tumour cell growth, NCI panel, 48 h
Assay [1] relates to A498 renal.
Assay [2] relates to CCRF-CEM leukemia.
Assay [3] relates to HCT-116 colon.
Assay [4] deals with HOP-92 NSCLC.
Assay [5] deals with KM20L2 colon.
Assay [6] relates to MALME-3M melanoma.
The test system of assay [7] is NCI-H226 lung.
Assay [8] relates to NCI-H460 lung.
Assay [9] has as its system OVCAR-5 ovarian.
Assay [10] relates to SF-268 CNS.
The test system of assay [11] is SF-295 CNS.
For assay [12], the system named is SN12C renal.
Assay [13] concerns ACHN renal.

On to `C=CCCCCCCCCC(=O)O`, for which the TGI turned out to be 1.06 µM in assay [1]; 292 µM in assay [2]; 225 µM in assay [3]; 199 µM in [4]; 268 µM in assay [5]; 302 µM in assay [6]. Further, the TGI in assay [7] was 394 µM; in [8] it was 191 µM; in assay [9], 351 µM; in assay [10], 254 µM; in assay [11] it was 200 µM; in [12], 339 µM.
As for `Cc1ccc(-c2cc(-c3ccco3)c(C#N)c(=O)n2C2OC(CO)C(O)C(O)C2O)cc1` (stereo not given), the TGI in assay [1] was 50.9 µM; in assay [13], above 100 µM; in assay [2], above 100 µM; in [3], above 100 µM; in [5], above 100 µM; in assay [6], 78.2 µM. The TGI in [7], in assay [8], in [9], in assay [10], in assay [11] and in assay [12] was above 100 µM throughout.
`CN(C(=O)c1ccc(OCCCC(=O)O)c(Cl)c1Cl)C1CCCC1`: the TGI in [1], in assay [2], in assay [3], in assay [4], in [5] and in assay [6] was above 100 µM in each case. Also, the TGI in assay [7], in [8], in assay [9], in assay [10], in assay [11] and in [12] was above 100 µM in each case.
Turning to `COc1cc(C=O)cc(O)c1O`, the TGI in assay [13], in [2], in assay [3], in assay [5], in [6] and in assay [7] was above 100 µM each time. Further, the TGI in [8], in assay [10], in assay [11] and in [12] was above 100 µM throughout.
On to `CCOC(=O)C(=O)NC12CC3CC(CC(C3)C1)C2`, for which the TGI in [1], in assay [13], in assay [2], in assay [3], in assay [4] and in [5] was above 100 µM in each case. In addition, the TGI in [6], in assay [7], in [8], in assay [9], in assay [10] and in assay [11] was above 100 µM in each case. Further, in assay [12], the TGI is above 100 µM.
For the compound `COc1cccc2c1C(=O)c1c(O)c3c(c(O)c1C2=O)C[C@@](O)(C(=O)CO)CC3OC1CC(NCCCC(OC(C)=O)OC(C)=O)C(O)C(C)O1` (stereo not given in full), the TGI was 0.00609 µM in assay [1]; above 1 µM in assay [2]; 0.0065 µM and 0.000862 µM in [4]; 0.167 µM in [5]; 0.00452 µM in assay [6]; 0.00579 µM in [7]. For the same compound, the TGI in assay [9] was 0.701 µM; in assay [11], 0.000645 µM; in [12], above 1 µM. For the same compound, the GI50 in assay [2] was 0.000104 µM; in [4], 0.00024 µM; in [5], below 0.0001 µM; in [9], 0.000347 µM; in assay [11], below 0.0001 µM; in assay [12] it was below 0.0001 µM.
Take `CC(=O)Nc1ccc(Sc2nnc(NC(C)=O)s2)cc1`: the TGI in [13], in [2], in assay [3], in [8], in assay [9] and in assay [10] was above 100 µM each time. Besides, the TGI in [11] and in assay [12] was above 100 µM throughout.
For the compound `O=[N+]([O-])C(=C/c1cccs1)/C(=C\c1cccs1)[N+](=O)[O-]`, the TGI in assay [13] was determined as 2.68 µM; in assay [2] it was 0.276 µM; in assay [3], 2.49 µM; in assay [4], 3.28 µM; in assay [6], 4.82 µM; in assay [7] it was 9.84 µM. In addition, the TGI in assay [8] was 5.31 µM; in assay [9] it was 7.21 µM; in assay [10] it was 10.4 µM; in assay [11], 4.92 µM.
With `Cn1c(=O)c(Cl)c(N=[N+]=[N-])c2ccccc21`, the TGI in [1], in assay [13], in [2], in assay [3], in assay [4] and in [6] was above 100 µM each time. Besides, the TGI in assay [7], in assay [8], in assay [9], in assay [10], in assay [11] and in assay [12] was above 100 µM in each case.
For `COC1C(O)C(C)OC(OC2CCC3(C)C(CCC4C3C(O)CC3(C)C(C5=CC(=O)OC5)CCC43O)C2)C1O` (stereo not given), the TGI worked out at 0.703 µM in [1]; 0.684 µM in assay [13]; 0.533 µM in assay [3]; 3.33 µM in [4]; 0.667 µM in [6]; 2.39 µM in [7]. Moreover, the TGI in assay [8] amounted to 0.777 µM; in [9], 1.77 µM; in assay [10] it was 0.532 µM; in [11], 1.23 µM; in [12], 0.426 µM.
Turning to `O=C1c2ccccc2C(=O)N1CC(CN1C(=O)c2ccccc2C1=O)(C(=O)OCc1ccccc1)C(=O)OCc1ccccc1`, the TGI in [1], in [2], in assay [3], in [4], in assay [6] and in [7] was above 100 µM in each case. Further, the TGI in assay [8], in assay [9], in assay [11] and in [12] was above 100 µM each time.
For `CCOC(=O)C(OP(=O)(OCC)OCC)C(F)(F)F` (stereo not given), the TGI in assay [1], in [13], in assay [2], in [3], in assay [6] and in assay [7] was above 100 µM each time. For the same compound, the TGI in [8], in [9], in assay [10] and in assay [12] was above 100 µM each time.
